PubChem BioAssay (NCI)
Several values for one entry are separate records, joined by “and”; a condition that tells them apart may be missing. Equal values may be shown once.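 Assay format: 96-well plates, 48-hour exposure. At the GI50, growth is halved. TGI: total growth inhibition.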

Assays:
Assay in all cases: growth of human tumour cells (NCI), 48 h
[1] = system: RXF 393 renal
[2] = system: UACC-257 melanoma
[3] = system: MALME-3M melanoma
[4] = system: RPMI-8226 leukemia
[5] = system: HOP-92 NSCLC
[6] = system: SN12C renal
[7] = system: SK-MEL-2 melanoma
[8] = system: K-562 leukemia
[9] = system: KM12 colon
[10] = system: 786-0 renal

| Compound | GI50 [1] [µM] | TGI [1] | GI50 [2] [µM] | TGI [2] [µM] | GI50 [3] [µM] | TGI [3] [µM] | GI50 [4] [µM] | TGI [4] [µM] | GI50 [5] [µM] | TGI [5] [µM] | GI50 [6] [µM] | TGI [6] [µM] | GI50 [7] [µM] | TGI [7] [µM] | GI50 [8] [µM] | TGI [8] [µM] | GI50 [9] [µM] | TGI [9] [µM] | GI50 [10] [µM] | TGI [10] [µM] |
| --- | --- | --- | --- | --- | --- | --- | --- | --- | --- | --- | --- | --- | --- | --- | --- | --- | --- | --- | --- | --- |
| CCOC(=O)Nc1nc2ccc(OCC)cc2s1 | > 53.4 | > 100 µM | > 100 | > 100 | > 100 | > 100 | 27.1 | > 100 | > 62.7 | > 100 | > 93.4 | > 100 | 40.3 | > 100 | 3.17 | > 100 | 3.31 | > 100 | > 100 | > 100 |
| CN(C)c1ccc(-c2cc(-c3ccc(Nc4nc(Nc5ccc(Cl)cc5)nc(Nc5ccc(Cl)cc5)n4)cc3)no2)cc1 | 2.76 | 6.04 µM | 9.28 | 68.3 | 13 | 36.9 | 2.6 | 17 | 2.69 | 10.6 | 9.63 | 61 | 2.87 | 11 | 1.72 | 5.3 | 4.11 | 25.3 | 1.51 | 3.66 |
| Cn1ccnc1C(=O)/C=C/c1ccc(CC(=O)Nc2ccc(Br)cc2)cc1 | 3.12 | 6.03 µM | 15.6 | > 16.7 | 4.04 | 10.8 | 2.76 | 8.11 | 3.15 | 8.26 | 3.88 | 11.1 | > 16.7 | > 16.7 | 3.88 | > 16.7 | 2.66 | 5.51 | 2.77 | 5.92 |
| Nc1cc2nc3ccccc3sc-2cc1=O | 2.13 | 6.14 µM | 2.3 | 5.83 | 2.04 | 3.62 | 2.54 | 26.4 | 2.77 | 9.59 | 1.72 | 3.4 | 2.03 | 4.24 | 2.48 | > 100 | 10.8 | 30.6 | 4.21 | 14.5 |
| Cc1ccc(-c2nnc(-c3ccc4ccccc4c3)o2)cc1 |  | 55.1 µM |  | > 100 |  | > 88.9 |  | > 100 |  | > 100 |  | > 100 |  | > 32.6 |  | > 51.2 |  | > 100 |  | > 100 |
| CC1(C)COC(c2ccc(C(F)(F)F)cc2C(O)c2ccc3ccccc3c2)=N1 (stereo not drawn) | > 10 | > 10 µM and 44.3 µM | > 100 | > 100 | > 100 | > 100 |  | > 100 |  | > 100 | > 100 | > 100 | > 100 | > 100 | > 100 | > 100 | > 100 | > 100 | > 100 | > 100 |
| CCOC(=O)C1=C(C)CC2C(=O)OC(=O)C2C1(C)C (stereo not drawn) |  | > 100 µM |  | > 100 |  | > 100 |  | > 100 |  | > 100 |  | > 100 |  | > 100 |  | > 100 |  | > 100 |  | > 100 |
| Cc1cc(=O)n2[nH]c(-c3ccc(C(C)(C)C)cc3)cc2n1 | 4.59 | 28.2 µM | 4.32 | 49.6 | 2.76 | 29 | 3.89 | 54.8 | 6.6 | 51.6 | 12.3 | > 100 | 10.5 | 65.5 | 6.72 | > 100 | 7.04 | 53.9 | 10.3 | > 100 |
| Cc1nc2c(nc1C)C(=O)c1ccccc1C2=O |  | 53.9 µM |  | 4.3 |  | 0.704 |  | 45.9 |  | 45 |  | 6.4 |  | 6.57 |  | 32.1 |  | 35.3 |  | 47.1 |
| COc1cc2nc(C)nc(N[C@H](C)c3cc(N)cc(C(F)(F)F)c3)c2cc1O[C@H]1CCOC1 | 5.88 | 22 µM | 16.1 | 30.5 | 18.2 | 33.4 | 11 | 47.9 | 0.0623 | 7.31 | 6.46 | 21.9 | 18 | 34.7 | 0.489 | 23.2 | 14.9 | 30 | 9.82 | 23.1 |
| CNC(=O)c1ccccc1Nc1nc(Nc2ccc(N3CCOCC3)cc2OC)ncc1Cl | 0.797 | 3.31 µM | 0.421 | > 100 | 0.405 | 16.9 | 2.02 | > 48.5 | 0.0571 | 1.03 | 1.77 | > 100 | 0.274 | 2.5 | 4.75 | > 90.5 | 0.298 | 8.52 | 1.03 | > 35.1 |
| O=C1c2cccnc2-c2nc(-c3ccccc3[N+](=O)[O-])cc3c2c1nc1ccccc13 | 20.7 | 98.3 µM | 2.01 | 13.3 | 3.11 | 14.8 | > 23.8 | > 100 | 8.7 | > 100 | 15.6 | 37.9 | 10.3 | 53.1 | > 28.8 | > 100 | 14.1 | > 55 | 14.7 | 35.1 |
| Cc1cc(=O)[nH]c2cc3oc4ccccc4c3cc12 |  | > 100 µM |  | > 100 |  | > 100 |  | > 100 |  | > 100 |  | > 100 |  | > 100 |  | > 100 |  | > 100 |  | > 81.8 |
| O=C(/C=C/c1ccccc1Cl)c1ccc(Cl)c(Cl)c1 |  | 26 µM |  | 40.2 |  | 55.7 |  | > 100 |  | 58.1 |  | > 100 |  | 36.9 |  | 67.9 |  | 29.7 |  | 29.8 |
| CC1=C(C(=O)Nc2ccccc2C)C(c2ccco2)C(C(=O)Nc2ccccc2C)=C(C)N1C |  | > 100 µM |  | > 100 |  | > 100 |  | > 100 |  | > 100 |  | > 100 |  | > 100 |  | > 100 |  | > 100 |  | > 100 |
